From the Deep4Chem optical property database come the findings set out here.

One data set in a line: solvent given as SMILES. Particulars: in C1CCC2CCCCC2C1.
The molecule `CNc1cccc2c1C(=O)c1ccccc1C2=O` had an emission maximum of 565 nm.

Still in this data set, the particulars now being: in C1CCCCC1.
`CNc1cccc2c1C(=O)c1ccccc1C2=O`: the emission maximum was 563 nm.

In the case of `CCN(CC)c1ccc(/C=C/C2=[O+][B-](F)(F)Oc3c2c(=O)oc2cc(N(CC)CC)ccc32)cc1`, the emission maximum is reported as 556 nm.

`CC1=[N+]2C(=C(c3ccc(N(c4ccccc4)c4ccccc4)cc3)c3ccc(C)n3[B-]2(F)F)C=C1c1cc2n(c1)[B-](F)(F)[N+]1=CC=CC1=C2c1c(C)cc(C)cc1C`: the emission maximum was determined as 645 nm.

Regarding `C[Si](C)(c1cccc2cc3ccccc3cc12)[Si](C)(C)c1cccc2cc3ccccc3cc12`, the emission maximum came out at 412 nm.

`Cc1cc(C)c(C2=C3C=C(c4ccc(C(C)(C)C)cc4)C(c4ccc(C(C)(C)C)cc4)=[N+]3[B-](F)(F)n3c2cc(-c2ccc(C(C)(C)C)cc2)c3-c2ccc(C(C)(C)C)cc2)c(C)c1` had an emission maximum of 639 nm.

`COc1ccc(/C=C/c2ccccc2)cc1` had an emission maximum of 364 nm.

For the molecule `Nc1cccc2c1-c1ccccc1C2=O`, the emission maximum is reported as 513 nm.

The same data set, now with this note: in C1CCOC1.
Consider `Nc1ccc(-c2ccc(N)cc2)cc1`, for which the emission maximum amounted to 394 nm.

As to `CCCCCCCCCCCCOc1cc2cc(N(C)C)ccc2cc1C=C(C#N)C#N`, the emission maximum was 576 nm.

`CCOC(=O)C1=CN(c2ccccc2)C=C(C(=O)OCC)C1c1ccccc1` showed an emission maximum of 412 nm.

`Brc1ccc(-c2nc(-c3ccc(C#Cc4ccc(-n5c6ccccc6c6ccccc65)cc4)cc3)nc(-c3ccc(C#Cc4ccc(-n5c6ccccc6c6ccccc65)cc4)cc3)n2)cc1` registered an emission maximum of 465 nm.

For the molecule `Cc1cc(C)c(C2=C3C=C(c4ccc(C(C)(C)C)cc4)C(c4ccc(C(C)(C)C)cc4)=[N+]3[B-](F)(F)n3c2cc(-c2ccc(C(C)(C)C)cc2)c3-c2ccc(C(C)(C)C)cc2)c(C)c1`, the emission maximum is reported as 628 nm.

The molecule `N#Cc1ccc(-c2ccc(C3=CCC(c4ccccc4)CC3)s2)s1` (configuration not stated) registered an emission maximum of 442 nm.

With `c1ccc2c(c1)Cc1c-2sc2c1Cc1ccccc1-2`, the emission maximum came out at 385 nm.

`N#Cc1cc2ccccc2[nH]1` had an emission maximum of 328 nm.

As to `COc1cc2cc(OC)c(C#Cc3ccc([N+](=O)[O-])cc3)cc2cc1C#Cc1ccc([N+](=O)[O-])cc1`, the emission maximum turned out to be 514 nm.

The same data set, now with this note: in C1COCCO1.
`Nc1ccc(-c2ccc(N)cc2)cc1` gave an emission maximum of 392 nm.

`CCN(CC)c1ccc(/C=C/C2=[O+][B-](F)(F)Oc3c2c(=O)oc2cc(N(CC)CC)ccc32)cc1` yielded an emission maximum of 610 nm.

On to `N#Cc1cc2ccccc2[nH]1`, for which the emission maximum worked out at 329 nm.

Turning to `CCCn1c(=O)c(/C=C/c2nc3ccc(C)cc3n(CCC)c2=O)nc2ccc(C)cc21`, the emission maximum was 484 nm.

The same data set, now with this note: in CC1CCCCC1.
On to `CNc1cccc2c1C(=O)c1ccccc1C2=O`, for which the emission maximum is listed as 565 nm.

The same data set, now with this note: in CC#N.
The molecule `CNc1cccc2c1C(=O)c1ccccc1C2=O` returned an emission maximum of 617 nm.

`Nc1ccc(-c2ccc(N)cc2)cc1` came in with an emission maximum of 393 nm.

On to `FC(F)(F)c1ccc(/C=C/c2ccc(-c3nnc(-c4ccc(-c5cc6ccccc6s5)cc4)o3)cc2)cc1`, for which the emission maximum is listed as 388 nm.

The molecule `CCN(CC)c1ccc(/C=C/C2=[O+][B-](F)(F)Oc3c2c(=O)oc2cc(N(CC)CC)ccc32)cc1` yielded an emission maximum of 644 nm.

`CCCCCCCCCCCCOc1cc2cc(N(C)C)ccc2cc1C=C(C#N)C#N` came in with an emission maximum of 613 nm.

Regarding `Cn1c(=O)cc(C(=O)c2ccccc2)c2sc(-c3ccc(C(F)(F)F)cc3)cc21`, the emission maximum is on record as 517 nm.

In turn, `Brc1ccc(-c2nc(-c3ccc(C#Cc4ccc(-n5c6ccccc6c6ccccc65)cc4)cc3)nc(-c3ccc(C#Cc4ccc(-n5c6ccccc6c6ccccc65)cc4)cc3)n2)cc1` returned an emission maximum of 563 nm.

With `C[Si](C)(c1cccc2cc3ccccc3cc12)[Si](C)(C)c1cccc2cc3ccccc3cc12`, the emission maximum amounted to 412 nm.

Molecule `Cc1cc(C)c(C2=C3C=C(c4ccc(C(C)(C)C)cc4)C(c4ccc(C(C)(C)C)cc4)=[N+]3[B-](F)(F)n3c2cc(-c2ccc(C(C)(C)C)cc2)c3-c2ccc(C(C)(C)C)cc2)c(C)c1` registered an emission maximum of 643 nm.

As to `COc1ccc(/C=C/c2ccccc2)cc1`, the emission maximum was 374 nm.

`Nc1cccc2c1-c1ccccc1C2=O` showed an emission maximum of 604 nm.

`N#Cc1ccc(-c2ccc(C3=CCC(c4ccccc4)CC3)s2)s1` (configuration not stated): the emission maximum is reported as 448 nm.

Consider `N#Cc1cc2ccccc2[nH]1`, for which the emission maximum is 330 nm.

On to `CCCn1c(=O)c(/C=C/c2nc3ccc(C)cc3n(CCC)c2=O)nc2ccc(C)cc21`, for which the emission maximum amounted to 502 nm.

As to `Cc1ccc(-c2cc(-c3ccccc3Cl)c3c(N)nc(N4CCCC4)c(C#N)c3n2)cc1`, the emission maximum worked out at 526 nm.

Staying with this data set, now noted: in CC(C)=O.
Consider `FC(F)(F)c1ccc(/C=C/c2ccc(-c3nnc(-c4ccc(-c5cc6ccccc6s5)cc4)o3)cc2)cc1`, for which the emission maximum amounted to 390 nm.

As for `CCN(CC)c1ccc(/C=C/C2=[O+][B-](F)(F)Oc3c2c(=O)oc2cc(N(CC)CC)ccc32)cc1`, the emission maximum amounted to 636 nm.

The molecule `Cc1ccc(-c2cc(-c3ccccc3Cl)c3c(N)nc(N4CCCC4)c(C#N)c3n2)cc1` came in with an emission maximum of 522 nm.

Still in this data set, the particulars now being: in CC(C)O.
As to `COc1ccc(/C=C/c2ccccc2)cc1`, the emission maximum is on record as 365 nm.

The molecule `N#Cc1cc2ccccc2[nH]1` yielded an emission maximum of 332 nm.

`Cc1ccc(-c2cc(-c3ccccc3Cl)c3c(N)nc(N4CCCC4)c(C#N)c3n2)cc1`: the emission maximum is on record as 516 nm.

The data set is the same for the next values; noted with them: in CCC(C)CC.
Turning to `CNc1cccc2c1C(=O)c1ccccc1C2=O`, the emission maximum is reported as 562 nm.

Still in this data set, the particulars now being: in CCCCCC.
As to `CNc1cccc2c1C(=O)c1ccccc1C2=O`, the emission maximum worked out at 560 nm.

In the case of `Nc1ccc(-c2ccc(N)cc2)cc1`, the emission maximum stood at 373 nm.

`CCCCCCCCCCCCOc1cc2cc(N(C)C)ccc2cc1C=C(C#N)C#N` came in with an emission maximum of 653 nm.

For `Brc1ccc(-c2nc(-c3ccc(C#Cc4ccc(-n5c6ccccc6c6ccccc65)cc4)cc3)nc(-c3ccc(C#Cc4ccc(-n5c6ccccc6c6ccccc65)cc4)cc3)n2)cc1`, the emission maximum is recorded as 411 nm.

Molecule `N#Cc1ccc(-c2ccc(C3=CCC(c4ccccc4)CC3)s2)s1` (configuration not stated) gave an emission maximum of 427 nm.

On to `Nc1ccc(-c2ccc3c(c2)C(=O)c2ccccc2C3=O)cc1`, for which the emission maximum is 512 nm.

Still in this data set, the particulars now being: in CCCCCCCC
For the molecule `FC(F)(F)c1ccc(/C=C/c2ccc(-c3nnc(-c4ccc(-c5cc6ccccc6s5)cc4)o3)cc2)cc1`, the emission maximum is 387 nm.

The data set is the same for the next values; noted with them: in CCCCCCCCCCO
Consider `FC(F)(F)c1ccc(/C=C/c2ccc(-c3nnc(-c4ccc(-c5cc6ccccc6s5)cc4)o3)cc2)cc1`, for which the emission maximum turned out to be 395 nm.

Still in this data set, the particulars now being: in CCCCCCCCO
`FC(F)(F)c1ccc(/C=C/c2ccc(-c3nnc(-c4ccc(-c5cc6ccccc6s5)cc4)o3)cc2)cc1` yielded an emission maximum of 394 nm.

Staying with this data set, now noted: in CCCCCO.
Molecule `FC(F)(F)c1ccc(/C=C/c2ccc(-c3nnc(-c4ccc(-c5cc6ccccc6s5)cc4)o3)cc2)cc1` registered an emission maximum of 393 nm.

Still in this data set, the particulars now being: in CCCCOCCCC
In the case of `COc1ccc(/C=C/c2ccccc2)cc1`, the emission maximum stood at 367 nm.

The same data set, now with this note: in CCCO.
Consider `FC(F)(F)c1ccc(/C=C/c2ccc(-c3nnc(-c4ccc(-c5cc6ccccc6s5)cc4)o3)cc2)cc1`, for which the emission maximum was 391 nm.

The data set is the same for the next values; noted with them: in CCO.
`O=C(Cc1ccccc1)OCc1ccc2c3cccc4cccc(c5cccc1c52)c43` came in with an emission maximum of 445 nm.

For `CCN(CC)c1ccc(/C=C/C2=[O+][B-](F)(F)Oc3c2c(=O)oc2cc(N(CC)CC)ccc32)cc1`, the emission maximum is reported as 635 nm.

`CN1/C(=C/C=C(/C=C/c2sc3ccccc3[n+]2C)c2cc(F)cc(F)c2)Sc2ccccc21`: the emission maximum was 670 nm.

`CCCCCCCCCCCCOc1cc2cc(N(C)C)ccc2cc1C=C(C#N)C#N` returned an emission maximum of 610 nm.

In turn, `Nc1cccc2c1-c1ccccc1C2=O` came in with an emission maximum of 667 nm.

`N#Cc1ccc(-c2ccc(C3=CCC(c4ccccc4)CC3)s2)s1` (configuration not stated) had an emission maximum of 444 nm.

Take `N#Cc1cc2ccccc2[nH]1`: the emission maximum came out at 334 nm.

Still in this data set, the particulars now being: in CCOC(C)=O.
Molecule `CNc1cccc2c1C(=O)c1ccccc1C2=O` gave an emission maximum of 600 nm.

Regarding `Nc1ccc(-c2ccc(N)cc2)cc1`, the emission maximum was 391 nm.

The molecule `CCN(CC)c1ccc(/C=C/C2=[O+][B-](F)(F)Oc3c2c(=O)oc2cc(N(CC)CC)ccc32)cc1` displayed an emission maximum of 617 nm.

On to `CCCCCCCCCCCCOc1cc2cc(N(C)C)ccc2cc1C=C(C#N)C#N`, for which the emission maximum is recorded as 571 nm.
